Experimental data as given in ChEMBL document CHEMBL3885861, “Open TG-GATES”.

Species on record: Rattus norvegicus
Test: Open TG-GATES - Regimen: Single
Type: toxicity, organism-based, Sprague-Dawley
Set-up: regimen Single, gender Male, age 6 weeks
Conditions: in vivo, po, 60 mg/kg, route gavage, dose level Low; for APTT / Bas / Eos / Fbg / Hb / Ht / MCH / MCHC / MCV / Mono / PT / Plat / RBC / Ret / WBC: tissue Blood; for ALP / ALT / CRE / DBIL / GLC / IP / K / LDH / Na / PL / RALB / TBIL / TC / TG / TP / gamma-GTP: tissue Plasma

CCN(CC)C(=S)SSC(=S)N(CC)CC gave a TERMINAL_BW (3 h) of 215.7 g, an APTT (3 h) of 20.7 s and a Bas (3 h) of 0%. The Eos (3 h) was 0.6%, the Fbg (3 h) was 298.2 mg/dL and the Hb (3 h) was 12.9 g/dL. It also gave a Ht (3 h) of 39.9%, an MCH (3 h) of 20.2 pg and an MCHC (3 h) of 32.3%. For the same compound, the MCV (3 h) was 62.6 fL, the Mono (3 h) was 3.6% and the PT (3 h) was 16.3 s. For the same compound, the Plat (3 h) was 128.9 x10_4/uL, the RBC (3 h) was 638.2 x10_4/ul and the Ret (3 h) was 8.8%. It also gave a WBC (3 h) of 84.6 x10_2/uL, an ALP (3 h) of 1871.6 IU/L and an ALT (3 h) of 41.6 IU/L. It also gave a CRE (3 h) of 0.1 mg/dL, a DBIL (3 h) of 0.002 mg/dL and a GLC (3 h) of 178.2 mg/dL. For the same compound, the IP (3 h) was 8.8 mg/dL, the K (3 h) was 4.1 meq/L and the LDH (3 h) was 188.6 IU/L. It also gave a Na (3 h) of 141.4 meq/L, a PL (3 h) of 128.6 mg/dL and an RALB (3 h) of 3.2 g/dL. The TBIL (3 h) was 0.016 mg/dL, the TC (3 h) was 71 mg/dL and the TG (3 h) was 70 mg/dL. For the same compound, the TP (3 h) was 5.5 g/dL, the gamma-GTP (3 h) was 1.4 IU/L and the TERMINAL_BW (6 h) was 211.5 g. It also gave an APTT (6 h) of 23.2 s, a Bas (6 h) of 0% and an Eos (6 h) of 0.8%. The Fbg (6 h) was 293 mg/dL, the Hb (6 h) was 13.2 g/dL and the Ht (6 h) was 40.9%. The MCH (6 h) was 20.3 pg, the MCHC (6 h) was 32.4% and the MCV (6 h) was 62.6 fL. The Mono (6 h) was 3.4%, the PT (6 h) was 16.3 s and the Plat (6 h) was 125.2 x10_4/uL. It also gave an RBC (6 h) of 653.8 x10_4/ul, a Ret (6 h) of 7.3% and a WBC (6 h) of 99 x10_2/uL. For the same compound, the ALP (6 h) was 1256.6 IU/L, the ALT (6 h) was 36.4 IU/L and the CRE (6 h) was 0.1 mg/dL. For the same compound, the DBIL (6 h) was 0 mg/dL, the GLC (6 h) was 179 mg/dL and the IP (6 h) was 9.1 mg/dL. It also gave a K (6 h) of 4.3 meq/L, an LDH (6 h) of 181.8 IU/L and a Na (6 h) of 141.6 meq/L. The PL (6 h) was 125.2 mg/dL, the RALB (6 h) was 3 g/dL and the TBIL (6 h) was 0.008 mg/dL. The TC (6 h) was 68.6 mg/dL, the TG (6 h) was 59.2 mg/dL and the TP (6 h) was 5.3 g/dL. The gamma-GTP (6 h) was 1 IU/L, the TERMINAL_BW (9 h) was 210.6 g and the APTT (9 h) was 23 s. For the same compound, the Bas (9 h) was 0%, the Eos (9 h) was 0.2% and the Fbg (9 h) was 307.2 mg/dL. For the same compound, the Hb (9 h) was 13.1 g/dL, the Ht (9 h) was 40.1% and the MCH (9 h) was 20.2 pg. For the same compound, the MCHC (9 h) was 32.5%, the MCV (9 h) was 62.3 fL and the Mono (9 h) was 2.6%. The PT (9 h) was 15.8 s, the Plat (9 h) was 121 x10_4/uL and the RBC (9 h) was 645 x10_4/ul. The Ret (9 h) was 7.5%, the WBC (9 h) was 93.7 x10_2/uL and the ALP (9 h) was 1515 IU/L. The ALT (9 h) was 32.8 IU/L, the CRE (9 h) was 0.1 mg/dL and the DBIL (9 h) was 0.002 mg/dL. For the same compound, the GLC (9 h) was 188.8 mg/dL, the IP (9 h) was 9.6 mg/dL and the K (9 h) was 4.1 meq/L. It also gave an LDH (9 h) of 160.4 IU/L, a Na (9 h) of 141.2 meq/L and a PL (9 h) of 149.4 mg/dL. The RALB (9 h) was 3.1 g/dL, the TBIL (9 h) was 0.018 mg/dL and the TC (9 h) was 81.6 mg/dL. For the same compound, the TG (9 h) was 99 mg/dL, the TP (9 h) was 5.5 g/dL and the gamma-GTP (9 h) was 1 IU/L. It also gave a TERMINAL_BW (24 h) of 213.4 g, an APTT (24 h) of 21.8 s and a Bas (24 h) of 0%. The Eos (24 h) was 0.4%, the Fbg (24 h) was 274.6 mg/dL and the Hb (24 h) was 12.6 g/dL. The Ht (24 h) was 39%, the MCH (24 h) was 20.3 pg and the MCHC (24 h) was 32.3%. It also gave an MCV (24 h) of 62.9 fL, a Mono (24 h) of 2% and a PT (24 h) of 16.6 s. For the same compound, the Plat (24 h) was 117.1 x10_4/uL, the RBC (24 h) was 620.4 x10_4/ul and the Ret (24 h) was 7%. The WBC (24 h) was 124.3 x10_2/uL, the ALP (24 h) was 1307.4 IU/L and the ALT (24 h) was 33.8 IU/L. It also gave a CRE (24 h) of 0.2 mg/dL, a DBIL (24 h) of 0 mg/dL and a GLC (24 h) of 178 mg/dL. For the same compound, the IP (24 h) was 6.5 mg/dL, the K (24 h) was 4.3 meq/L and the LDH (24 h) was 187.8 IU/L. The Na (24 h) was 141.4 meq/L, the PL (24 h) was 128.2 mg/dL and the RALB (24 h) was 2.8 g/dL. The TBIL (24 h) was 0.006 mg/dL, the TC (24 h) was 74.6 mg/dL and the TG (24 h) was 98 mg/dL. It also gave a TP (24 h) of 5.1 g/dL and a gamma-GTP (24 h) of 1 IU/L.
